Measured values reported in publication PMC6095626, “Screening of the Pathogen Box for inhibitors with dual efficacy against Giardia lamblia and Cryptosporidium parvum” (PLoS Neglected Tropical Diseases, 2018).
“Also recorded” adds a separate entry of the source.

Legend:
[1] = tested on: G. lamblia trophozoites (luciferase expressing, WBC6); assay: microbe, parasite or virus in culture; format: cell-based, Giardia lamblia; conditions: for Giardia (16 uM) Mean % inhibition: initial Pathogen Box screen, single concentration 16 µM, inhibition compared to DMSO wells; for G. lamblia EC50: luciferase expressing G. lamblia trophozoites, 24 hours, D-luciferin bioluminescence read-out
Procedure, shortened: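 Luciferase-expressing WBC6 trophozoites plated at 250,000 cells/mL, compounds added 1:1, incubated anaerobically (GasPak bags) at 37 °C for 24 h; viability read by bioluminescence, with duplicate plates counted on a MOXI Z cell counter. Metronidazole control serially diluted 1:2 from 40 μM.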

[2] = tested on: C. parvum (UGA1 Nluc expressing strain in HCT-8 cells); assay: microbe, parasite or virus in culture; format: cell-based, Cryptosporidium parvum; conditions: for Crypto (10 uM) Mean % inhibition: initial Pathogen Box screen, single concentration 10 µM, inhibition compared to DMSO wells; for EC50: Nluc C. parvum in HCT-8 cells, read-out: C. parvum EC50
Procedure, shortened: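 HCT-8 monolayers grown 48 h to 90–100% confluence, treated with compound at 10 μM or serial dilutions, then infected with bleach-treated UGA1 Nluc C. parvum oocysts.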

| SMILES | Giardia (16 uM) Mean % inhibition [1] | Crypto (10 uM) Mean % inhibition [2] | C. parvum cell growth inhibition in the initial screen ([2]; 10 μM, 48 hours) | EC50 ([2]; 48 hours) | G. lamblia EC50 [1] |
| --- | --- | --- | --- | --- | --- |
| COc1cccc(-n2nnnc2S(=O)(=O)Cc2ccccc2)c1 [MMV676388] | 38% | 67% |  |  |  |
| O=C(c1n[nH]c2c1CCCC2)N1CCN(Cc2ccc3c(c2)OCO3)CC1 [MMV676389] | 66% | X* (Mean or standard deviation are negative but not significantly different from the control to be a growth promoter) |  |  |  |
| CCS(=O)(=O)N(Cc1ccco1)Cc1cc2ccc(C)cc2[nH]c1=O [MMV676398] | 22% | X* (Mean or standard deviation are negative but not significantly different from the control to be a growth promoter) |  |  |  |
| c1coc(CNc2nc(N3CCCCC3)nc3ccccc23)c1 [MMV676401] | 76% | 48% |  |  |  |
| CC(C)n1ncc2c(C(=O)NCC(c3cccs3)N3CCOCC3)cc(-c3ccccc3)nc21 (stereo not shown) [MMV676406] | 34% | X* (Mean or standard deviation are negative but not significantly different from the control to be a growth promoter) |  |  |  |
| O=C(COc1cccc(F)c1)Nc1nc(-c2ccccn2)cs1 [MMV676409] | X* (Mean or standard deviation are negative but not significantly different from the control to be a growth promoter) | 67% |  |  |  |
| CC(Oc1ccccc1)C(=O)Nc1nc(-c2ccccn2)cs1 (stereo not shown) [MMV676411] | 16% | 86% |  |  |  |
| N#Cc1nc(-c2ccccc2)oc1S(=O)(=O)c1ccc(Cl)cc1 [MMV676412] | 49% | 77% |  |  |  |
| Cc1ccc(NC(=O)CC2COc3ccccc3O2)cc1Cl (stereo not shown) [MMV676431] | 18% | X* (Mean or standard deviation are negative but not significantly different from the control to be a growth promoter) |  |  |  |
| Cc1ccc2nc(Cl)c(CNCc3cccs3)cc2c1 [MMV676439] | 70% | 81% |  |  |  |
| CC(C)c1ncc(-c2ccncc2)c(C2CCC(CNC(=O)c3cccnc3)CC2)n1 (stereo not shown) [MMV676442] | 12% | 74% |  |  |  |
| O=C(NC1CCCCC1)N1CCN(Cc2ccc3c(c2)OCO3)CC1 [MMV676444] | 30% | 67% |  |  |  |
| CCCn1c(CNc2ccccc2O)nc2ccccc21 [MMV676445] | 13% | X* (Mean or standard deviation are negative but not significantly different from the control to be a growth promoter) |  |  |  |
| CCc1nc2ccccc2n1CC(O)COc1cc(C)ccc1Cl (stereo not shown) [MMV676449] | 46% | 37% |  |  |  |
| CCOC(=O)c1cc(-c2csc(Nc3c(C)cc(C)cc3C)n2)on1 [MMV676461] | 31% | 76% |  |  |  |
| NC(CC(=O)c1ccc(Cl)cc1Cl)C(Cl)(Cl)Cl (stereo not shown) [MMV676468] | 55% | X* (Mean or standard deviation are negative but not significantly different from the control to be a growth promoter) |  |  |  |
| CCOc1ccc(OCC(=O)Nc2cc(C)cc(C)c2)cc1 [MMV676470] | 12% | X* (Mean or standard deviation are negative but not significantly different from the control to be a growth promoter) |  |  |  |
| COc1cccc(OC)c1C(=O)Nc1ccc(Cl)c(-c2nc3ccccc3s2)c1 [MMV676472] | 28% | X* (Mean or standard deviation are negative but not significantly different from the control to be a growth promoter) |  |  |  |
| COc1ccccc1OCCCCn1c(C2CC2)nc2ccccc21 [MMV676474] | 3.27% | X* (Mean or standard deviation are negative but not significantly different from the control to be a growth promoter) |  |  |  |
| Cc1cc(C)cc(COc2ccc3c(C)c(CCC(=O)O)c(=O)oc3c2C)c1 [MMV676476] | 35% | X* (Mean or standard deviation are negative but not significantly different from the control to be a growth promoter) |  |  |  |
| CCc1c(C)nc(-n2nc(C)cc2NC(=O)c2ccccc2SC)[nH]c1=O [MMV676477] | 28% | 96% | ≥ 95% | 0.22 µM |  |
| O=C(C1CCN(c2nnc(-n3cccc3)s2)CC1)N1CCC(Cc2ccccc2)CC1 [MMV676478] | 9% | X* (Mean or standard deviation are negative but not significantly different from the control to be a growth promoter) |  |  |  |
| COC(=O)c1c(NC(=O)c2cc3ccccc3oc2=O)sc2c1CCN(Cc1ccccc1)C2 [MMV676480] | 7% | 63% |  |  |  |
| O=C(Nc1n[nH]c(=S)s1)c1cc(Br)ccc1Cl [MMV676492] | X* (Mean or standard deviation are negative but not significantly different from the control to be a growth promoter) | 57% |  |  |  |

| SMILES | Giardia (16 uM) Mean % inhibition [1] | Crypto (10 uM) Mean % inhibition [2] | C. parvum cell growth inhibition in the initial screen ([2]; 10 μM, 48 hours) | EC50 ([2]; 48 hours) | G. lamblia EC50 [1] |
| --- | --- | --- | --- | --- | --- |
| Cc1ccc2oc(-c3cc(NC(=O)Cc4ccccc4)ccc3Cl)nc2c1 [MMV676509] | 27% | 56% |  |  |  |
| O=C(Nc1nc(-c2ccccn2)cs1)c1cncn1-c1ccccc1 [MMV676512] | 10% | 93% |  |  |  |
| O=C(c1cc2ccccc2o1)N1CCN(Cc2ccc3c(c2)OCO3)CC1 [MMV676520] | 0.776% | 51% |  |  |  |
| Nc1cccnc1Nc1ccc(Cl)cc1 [MMV676524] | 26% | 83% |  |  |  |
| COc1ccc(-c2cc(NC(=O)c3ccc(F)cc3Cl)ccc2OC)cc1 [MMV676526] | 87% | 46% |  |  |  |
| Cc1cccc(NC(=O)c2cc(S(=O)(=O)N(C)c3ccc(F)cc3)ccc2Cl)n1 [MMV676528] | X* (Mean or standard deviation are negative but not significantly different from the control to be a growth promoter) | 80% |  |  |  |
| COCC(C)NC(=O)CSc1ncnc2sc(-c3ccccc3)cc12 (stereo not shown) [MMV676536] | 15% | X* (Mean or standard deviation are negative but not significantly different from the control to be a growth promoter) |  |  |  |
| O=C(NCCc1c[nH]c2ccccc12)c1cc2ccccc2oc1=O [MMV676539] | 7% | 22% |  |  |  |
| COc1ccc(Nc2ccccc2NC(=O)c2ccc(=O)[nH]c2)cc1 [MMV676554] | 21% | 61% |  |  |  |
| Cc1nnc(NCc2cccc(Cl)c2)c2ccccc12 [MMV676555] | X* (Mean or standard deviation are negative but not significantly different from the control to be a growth promoter) | X* (Mean or standard deviation are negative but not significantly different from the control to be a growth promoter) |  |  |  |
| CC1=NN(c2nc3ccccc3s2)C(=O)C1Cc1cccc2ccccc12 (stereo not shown) [MMV676558] | 42% | 89% |  |  |  |
| COc1ccc(-c2nc(-c3cccc(NC(=O)Cc4ccc(F)cc4)c3)no2)cc1OC [MMV676571] | 6% | 84% |  |  |  |
| O=C(NC1=NCCS1)c1sc2cc(F)ccc2c1Cl [MMV676584] | 89% | 69% |  |  |  |
| Nc1c2c(nc3sc4c(c13)CCCC4)CCCC2 [MMV676588] | 26% | 48% |  |  |  |
| O=C(CCC1CCCCC1)Nc1cccc(-c2nnc(-c3ccco3)o2)c1 [MMV676589] | 40% | 42% |  |  |  |
| CCCn1nnc(NC(=O)COc2ccc(C3CCCCC3)cc2)n1 [MMV676597] | 31% | 60% |  |  |  |
| CC(C)(C)n1nc(Cc2cccc3ccccc23)c2c(N)ncnc21 [MMV676599] | 21% | 86% |  |  |  |
| CO[C@@H](C(=O)N1Cc2[nH]nc(NC(=O)c3ccc(N4CCN(C)CC4)cc3)c2C1)c1ccccc1 [MMV676600] | 6% | 76% |  |  |  |
| CNC(=O)c1nn(C)c2c1C(C)(C)Cc1cnc(Nc3ccc(N4CCN(C)CC4)cc3)nc1-2 [MMV676602] | 94% | 85% |  | 0.31 µM | not effective; also recorded: not potent |
| C[C@H]1COC2(CCN(c3nc(=O)c4cc(C(F)(F)F)cc([N+](=O)[O-])c4s3)CC2)O1 [MMV676603] | 77% | X* (Mean or standard deviation are negative but not significantly different from the control to be a growth promoter) |  |  |  |
| Cc1ncc(-c2ccnc(Nc3ccc(S(C)(=O)=O)cc3)n2)n1C(C)C [MMV676604] | 92% | 92% |  | 2.9 µM | not effective; also recorded: not potent |
| CC1(O)CC(c2nc(-c3ccc4ccc(-c5ccccc5)nc4c3)c3c(N)nccn23)C1 (stereo not shown) [MMV676605] | 15% | X* (Mean or standard deviation are negative but not significantly different from the control to be a growth promoter) |  |  |  |
| O=C(c1ccc(NCCO)cc1)C1C[C@H]1c1ccc(Cl)cc1 (stereo partly shown) [MMV676877] | 8% | 70% |  |  |  |
